Source: US6949506B2, “Relaxin-like factor and methods and uses thereof” (BAS Medical, Inc., priority 1995, dated 2005)
“Also recorded” adds a separate entry of the source. Positions of bridges follow the written chain, without caps; N, C: chain ends. Chains are numbered I, II in the order given. No end group written: not given here.

Tests used:
[1] = test system: washed human sperm; assay: Sperm motility assay; format: cell-based; settings: 10 and 100 ng/ml
Text: Materials And Methods. Semen is obtained by masturbation from healthy volunteers. The sample is allowed to liquefy at room temperature and is then mixed with Minimum Essential Medium (MEM) with Hepes buffer added. This medium is used because it coincides with that washing medium employed by the in vitro clinic at MUSC. The sperm is then separated from the seminal fluid and MEM by centrifugation. The resultant sperm pellet is then resuspended in MEM at room temperature. Aliquots are then place in siliconized centrifuge tubes and one of several compounds added: l)human relaxin 10 ng/ml, 2)human relaxin 100 ng/ml, 3)relaxin-like factor 10 ng/ml, 4)relaxin-like factor 100 ng/ml, 5)one fraction of alkaline gland fluid from stingrays diluted 1:8 with pentoxyfyline. The additive is mixed well with the sperm/medium mixture. Samples are taken at 0, 2, 4, 6 and 24 hour intervals for automated determination of the following parameters: 1)motility, 2)progressivity, 3)path velocity, 4)progressive velocity, 5)track speed, 6)elongation, 7)lateral displacement, 8)cross beat frequency, 9)straightness, 10)linearity. Briefly described, each sample is loaded into a Maker heated specimen chamber and viewed in a light microscope equipped with laser doppler optics (IVOS, Beverly, Mass.).

[2] = molecular target: T1, RLF receptor (uterus) (Mus musculus, UniProt Q91ZZ5); assay: Binding assay, mouse uterus crude membranes, hRLF tracer
T1 construct: brain, and uterus (of estrogen primed mice); from tissue; host or cells: uterus of estrogen-primed mice, crude membranes
Method: (§1) Relaxin-binding assays were performed as described in Yang, et al., 1992, Endocrinology 130:179-185 and Büllesbach, et al., 1994, Endocrine. 2:1115-1120, using crude membrane preparations of mouse tissue. Mouse brains of 2 mice were collected into 15 ml of chilled buffer (25 mM HEPES, 0.14 M NaCl, 5.7 mM KCI, 0.2 mM phenylmethylsulfonyl-fluoride, and 80 mg/ml soybean trypsin inhibitor, pH 7.5) supplemented with sucrose (0.25 M, final concentration). The tissue was homogenized on ice for 10 s with a Polytron homogenizer (Brinlmann, Westbury, N.Y.) at setting 5. The homogenate was centrifuged at 700 rpm for 10 min at 4° C. and the supernatants were recentrifuged at 10,000×g for 1 h. The pellet was resuspended in 15 ml of ice cold binding buffer, 25 mM HEPES, 0.14 M NaCl, 5.7 mM KCI, 0.2 mM phenylmethylsulfonylfluoride, and 80 mg/ml soybean trypsin inhibitor, pH 7.5, supplemented with 1% bovine serum albumin, and centrifuged for 1 h at 10,000×g. […] The supernatant was discarded, the tip of the vial cut and counted in a γ-counter. Nonspecific binding was determined in the presence of 2 μl/ml of unlabeled competitor (0.33 μM). […]
(§2) Tissue specificity was determined using crude membrane preparations of leg muscles, kidneys, liver. brain, and uterus (of estrogen primed mice). […] Binding was based on protein concentration determined by Lowry. […]

[3] = molecular target: T2, RLF receptor (brain) (Mus musculus, UniProt Q91ZZ5); assay: Binding assay, mouse brain crude membranes, hRLF tracer
T2 construct: from tissue; host or cells: mouse brain, crude membranes
Method: as §1, §2

[4] = test system: collagen expression, rheumatoid synovial fibroblasts (Strain No. RSF64); assay: Inhibition of collagen expression by synovial fibroblasts; format: cell-based, human; settings: 100 ng/ml (each); TGF-β-treated fibroblasts
Method: The method for detecting and measuring collagen formation in the presence of relaxin described in Unemori and Amento, 1990, J. Biol. Chem. 265:10681-685 has been modified as follows to determine the ability of RLF, in vitro, to modulate the expression of collagen. Materials and Methods. Rheumatoid synovial fibroblasts (Strain No. […] The cells were simultaneously biosynthetically labelled with ^3H=[…] μCi/ml) in the presence of ascorbate and BAPN. After 24 hours, the conditioned media were collected and electrophoresed on 4-12% polyacrylamide gels (NOVEX) under reducing conditions. Gels were enhanced, dried, and exposed to X-ray films for 1-2 weeks. Collagen bands were identified on the X-ray films as bacterial collagenase-sensitive, proline-incorporating bands between 95-200 kDa. Band density was quantified by scanning densitometry and used as estimates of collagen expression.

[5] = test system: symphysis pubis of ovariectomized estrogen-primed female mice; assay: Mouse symphysis pubis (interpubic ligament) assay; format: in vivo
Method: Mouse interpubic ligament assays were performed essentially as described by Steinetz, et al., 1960, Endocrinology 67:102-115. Ovariectomized virgin female mice were printed with 5 μg estrogen cypionate in 100 μl sesame oil. Five days later the mice were injected subcutaneously with human relaxin, RLF, or mixtures of human relaxin and RLF in 100 μl of 0.1% benzopurpurin 4B. Specifically, groups of five animals received either human relaxin at a suboptimal dose or a mixture of 0.2 μg, 0.4 μg and 0.8 μg human relaxin and 5 μg of RLF as given in FIG. 8. For negative control 100 μl of 0.1% benzopurpurin 4B in water were injected. After 16 hours the mice were killed in an atmosphere of CO2, the symphysis pubis dissected free, and the distance between the interpubic bones measured with a dissecting microscope fitted with transilluminating fiber optics.

T1 sequence (Q91ZZ5 whole entry): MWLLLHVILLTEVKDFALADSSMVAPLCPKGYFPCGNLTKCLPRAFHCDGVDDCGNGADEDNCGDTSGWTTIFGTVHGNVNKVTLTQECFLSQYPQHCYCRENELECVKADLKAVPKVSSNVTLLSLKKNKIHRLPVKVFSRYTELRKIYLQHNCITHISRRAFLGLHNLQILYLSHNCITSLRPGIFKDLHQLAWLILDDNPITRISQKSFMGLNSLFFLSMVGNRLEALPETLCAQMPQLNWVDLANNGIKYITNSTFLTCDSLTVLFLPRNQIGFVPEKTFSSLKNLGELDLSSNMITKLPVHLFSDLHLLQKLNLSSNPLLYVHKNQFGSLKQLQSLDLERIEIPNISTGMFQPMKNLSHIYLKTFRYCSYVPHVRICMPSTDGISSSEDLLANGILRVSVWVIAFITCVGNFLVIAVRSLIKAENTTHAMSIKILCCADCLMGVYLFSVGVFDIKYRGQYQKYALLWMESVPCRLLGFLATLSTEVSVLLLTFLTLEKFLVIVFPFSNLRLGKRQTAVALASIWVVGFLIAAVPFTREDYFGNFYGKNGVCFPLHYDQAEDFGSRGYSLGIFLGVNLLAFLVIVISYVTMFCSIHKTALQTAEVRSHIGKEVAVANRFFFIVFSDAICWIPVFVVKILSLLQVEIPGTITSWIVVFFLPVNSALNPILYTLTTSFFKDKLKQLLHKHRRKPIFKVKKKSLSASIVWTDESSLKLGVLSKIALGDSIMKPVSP
T2 sequence (Q91ZZ5 whole entry): as above

- 50% Binding [2]: 0.3 ng
- 50% Binding [3]: 0.3 ng
Substance: RLF: synthesized human relaxin-like factor, two-chain peptide (A and B chain, SEQ ID NOS:3 and 4), three disulfide links (alpha AAATNPARYCCLSGCTQQDLLTLCPY; beta PTPEMREKLCGHHFVRALVRVCGGPRWSTEA; disulfide I:11-II:10; also: two further disulfide bonds, places not given here)
- potency in maintaining sperm motility relative to relaxin [1]: as potent in maintaining sperm motility at both doses as was relaxin
- effect on sperm motility compared to untreated controls ([1]; 0-24 h): preserve the motility
- decrease of TGF-β-stimulated collagen expression [4]: 17%
- effect on the activity of human relaxin in the mouse bioassay ([5]; 0.2, 0.4, 0.8 μg human relaxin with 5 μg RLF): significantly increased the activity of human relaxin
- optimal RLF amount for relaxin enhancement ([5]; in the presence of 0.5 μg of human relaxin): 5 µg
- effect of RLF on the relaxin effect at maximal dose ([5]; maximal dose of both): still augmented
- symphyseal widening, RLF alone ([5]; subcutaneous, 16 hours): no effect; also recorded: does not cause symphyseal widening
